Assay results: US20200172483A1, “HETEROCYCLIC SMALL MOLECULE MODULATORS OF HUMAN STING” (Curadev Pharma Limited, priority 2017, published 2020)
Read-outs that look alike come from different tables or passages of the source.

Experiments:
WT/R232 STING protein = molecular target: T1, WT/R232 STING protein (Homo sapiens, UniProt Q86WV6, H232R); assay: Luciferase reporter assay in HEK293T-hSTING-Luciferase cells (R232); assay type: cell-based; conditions: 20 hr stimulation, EC50 range
T1 construct: host or cells: HEK293T
Outline: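 Readout is fold-induction over baseline of secreted luciferase, measured by luminescence after 20 hr compound stimulation. Cells: clonally selected HEK293T stably carrying hSTING (R232) and a luciferase reporter under five tandem ISREs fused to an ISG54 minimal promoter.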

hSTING (H232) = molecular target: T2, hSTING (H232) (Homo sapiens, UniProt Q86WV6); assay: Luciferase reporter assay in HEK293T-hSTING-Luciferase cells (H232/REF polymorph); assay type: cell-based; conditions: EC50 range
T2 construct: host or cells: HEK293T
Excerpt: (§1) • a) Stable STING expressing cells—Stable HEK293T STING-expressing cell lines were generated using plasmids purchased from Invivogen, CA, USA, that contain STING cDNA cloned into the pUNO-1 vector under hEF1-HTLV promoter and containing the Blasticidin selection cassette. The plasmids hSTING (R232), hSTING (H232), hSTING (HAQ) were directly procured from Invivogen while hSTING (AQ) and hSTING (Q) were derived from hSTING (HAQ) and hSTING (R232) plasmids respectively by using a PCR based site directed mutagenesis method. These vectors were individually transfected into HEK293T cells using Lipofectamine (Invitrogen) and transfected cells were selected under Blasticidin selection. These transfected cells were further subjected to clonal selection using the limiting dilution method to obtain clonally pure populations of HEK cells transfected with each of the above mentioned human STING variants. Only those clones were selected in which ligand independent activation of STING was minimal. • b) Stable Luciferase reporter gene expressing cells—Stable HEK293T Luciferase reporter gene expressing cell lines were generated using pCDNA4 plasmids under an IRF-inducible promoter. This promoter is comprised of five tandem interferon-stimulated response elements (ISRE) fused to an ISG54 minimal promoter. This vector was transfected into HEK293T cells using Lipofectamine (Invitrogen) and transfected cells were selected under Zeocin selection. These transfected cells were further subjected to clonal selection using the limiting dilution method to obtain clonally pure populations of HEK cells transfected the Luciferase reporter construct. Only those clones were selected in which ligand independent induction of luciferase was minimal.
(§2) 5×10^5 clonally selected HEK293T-hSTING-Luciferase cells were seeded in 384-well plates in growth medium and stimulated with novel compounds. After 20 hr of stimulation supernatant were removed and secretary reporter gene activity were measured using the Quanti-Luc detection system (Invivogen) on a Spectramax i3X luminometer.
(§3) The 5 major polymorphisms of human STING are shown in FIG. 1, with their prevalence in human populations indicated.

hSTING (HAQ) = molecular target: T3, hSTING (HAQ) (Homo sapiens, UniProt Q86WV6, G230A/H232R/R293Q/R71H); assay: Luciferase reporter assay in HEK293T-hSTING-Luciferase cells (HAQ polymorph); assay type: cell-based; conditions: EC50 range
T3 construct: host or cells: HEK293T
Excerpt: as §1, §2, §3

IRF pathway = assay: Reporter gene expression assay for IRF axis in THP1-Dual cells (secreted Lucia luciferase); assay type: cell-based, human; conditions: 20 hr stimulation, QUANTI-Luc, EC50 range, read-out: THP-IRF activity
Description: (§4) THP1-Dual™ cells (Invivogen) were derived from the human THP-1 monocyte cell line by stable integration of two inducible reporter constructs. As a result, THP1-Dual™ cells allow the simultaneous study of the NF-κB pathway, by monitoring the activity of secreted SEAP, and the IRF pathway, by assessing the activity of a secreted luciferase (Lucia). […] THP1-Dual™ cells were seeded in 384-well plates in growth medium and stimulated with novel compounds. After 20 hr of stimulation supernatant were removed and reporter proteins were readily measured in the cell culture supernatant using QUANTI-Blue™ (Invivogen), a SEAP detection reagent, and QUANTI-Luc™ (Invivogen), a luciferase detection reagent on a Spectramax i3X luminometer. EC50 value ranges for exemplary compounds tested in the above assay are given.

NF-κB pathway = assay: Reporter gene expression assay for NFκB axis in THP1-Dual cells (secreted SEAP); assay type: cell-based, human; conditions: 20 hr stimulation, QUANTI-Blue SEAP, EC50 range, read-out: THP-NFKB activity
Description: as §4

T3 sequence (Q86WV6 whole entry R71H/G230A/H232R/R293Q): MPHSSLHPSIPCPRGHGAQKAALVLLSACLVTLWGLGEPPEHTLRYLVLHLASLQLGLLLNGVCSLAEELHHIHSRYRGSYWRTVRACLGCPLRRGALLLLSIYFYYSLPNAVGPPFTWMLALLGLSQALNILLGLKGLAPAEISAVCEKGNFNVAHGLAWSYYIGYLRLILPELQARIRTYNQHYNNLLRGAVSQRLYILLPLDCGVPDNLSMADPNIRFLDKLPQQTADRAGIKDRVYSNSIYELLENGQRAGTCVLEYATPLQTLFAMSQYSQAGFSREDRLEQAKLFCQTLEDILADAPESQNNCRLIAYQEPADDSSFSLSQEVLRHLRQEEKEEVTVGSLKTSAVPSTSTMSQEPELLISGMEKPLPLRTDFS
T2 sequence (Q86WV6 whole entry): as the sequence (Q86WV6 whole entry R71H/G230A/H232R/R293Q) above, with H71R, A230G, R232H, Q293R counted along it
T1 sequence (Q86WV6 whole entry H232R): as the sequence (Q86WV6 whole entry R71H/G230A/H232R/R293Q) above, with H71R, A230G, Q293R counted along it

Row | Compound | EC50 (WT/R232 STING protein) [µM] | EC50 (hSTING (H232)) [µM] | EC50 (hSTING (HAQ)) [µM] | EC50 (IRF pathway; Homo sapiens, THP1-Dual, 20 h) [µM] | EC50 (NF-κB pathway; Homo sapiens, THP1-Dual, 20 h) [µM] | EC50 (NF-κB pathway) [µM] | EC50 (IRF pathway) [µM]
1 | CCC1(OC)C(=O)N(Cc2c(F)cccc2Cl)c2cc(C(=O)NCc3c(F)cc(F)cc3F)ccc21 (centres unmarked) [Example 161, 1-(2-chloro-6-fluorobenzyl)-3-ethyl-3-methoxy-2-oxo-N-(2,4,6-trifluorobenzyl)indoline-6-carboxamide] | 1 to 10 | 1 to 10 | 1 to 10 | > 10 | > 10 | – | –
2 | CC1(C)C(=O)N(Cc2noc3ncccc23)c2cc(C(=O)NCc3c(F)cc(F)cc3F)ccc21 [Example 97, 1-(isoxazolo[5,4-b]pyridin-3-ylmethyl)-3,3-dimethyl-2-oxo-N-(2,4,6-trifluorobenzyl)indoline-6-carboxamide] | ≤ 1 | 1 to 10 | 1 to 10 | > 10 | > 10 | – | –
3 | CCC1(Cl)C(=O)N(Cc2c(F)cccc2Cl)c2cc(C(=O)NCc3c(F)cc(F)cc3F)ccc21 (centres unmarked) [Example 155, 3-chloro-1-(2-chloro-6-fluorobenzyl)-3-ethyl-2-oxo-N-(2,4,6-trifluorobenzyl)indoline-6-carboxamide] | ≤ 1 | > 10 | > 10 | > 10 | > 10 | – | –
4 | CC1(C)C(=O)N(Cc2c(F)cccc2Cl)c2cc(C(=O)NCc3cc4ccc(F)cc4o3)ccc21 [Example 74, 1-(2-chloro-6-fluorobenzyl)-N-((6-fluorobenzofuran-2-yl)methyl)-3,3-dimethyl-2-oxoindoline-6-carboxamide] | ≤ 1 | ≤ 1 | ≤ 1 | 1 to 10 | 1 to 10 | – | –
5 | CC1(C)C(=O)N(Cc2c(F)cccc2Cl)c2cc(C(=O)NCc3ccc4ccoc4c3)ccc21 [Example 90, N-(benzofuran-6-ylmethyl)-1-(2-chloro-6-fluorobenzyl)-3,3-dimethyl-2-oxoindoline-6-carboxamide] | ≤ 1 | 1 to 10 | 1 to 10 | 1 to 10 | 1 to 10 | – | –
6 | CCn1nc(C)cc1CN1C(=O)C(C)(C)c2ccc(C(=O)NCc3cc4cc(F)ccc4o3)cc21 [Example 116, 1-((1-ethyl-3-methyl-1H-pyrazol-5-yl)methyl)-N-((5-fluorobenzofuran-2-yl)methyl)-3,3-dimethyl-2-oxoindoline-6-carboxamide] | ≤ 1 | ≤ 1 | ≤ 1 | 1 to 10 | 1 to 10 | – | –
7 | Cc1nn(C)c(CN2C(=O)C(C)(C)c3ccc(C(=O)NCc4cc5cc(F)c(F)cc5o4)cc32)c1F [Example 114, N-((5,6-difluorobenzofuran-2-yl)methyl)-1-((4-fluoro-1,3-dimethyl-1H-pyrazol-5-yl)methyl)-3,3-dimethyl-2-oxoindoline-6-carboxamide] | ≤ 1 | ≤ 1 | ≤ 1 | 1 to 10 | 1 to 10 | – | –
8 | CC1(Cl)C(=O)N(Cc2cc(F)cc(F)c2)c2cc(C(=O)NCc3c(F)cc(F)cc3F)ccc21 (centres unmarked) [Example 144, 3-Chloro-1-(3,5-difluorobenzyl)-3-methyl-2-oxo-N-(2,4,6 trifluorobenzyl) indoline-6-carboxamide] | ≤ 1 | 1 to 10 | 1 to 10 | > 10 | – | 1 to 10 | –
9 | CC1(C#N)C(=O)N(Cc2c(F)cccc2Cl)c2cc(C(=O)NCc3c(F)cc(F)cc3F)ccc21 (centres unmarked) [Example 166, 1-(2-chloro-6-fluorobenzyl)-3-cyano-3-methyl-2-oxo-N-(2,4,6-trifluorobenzyl)indoline-6-carboxamide] | ≤ 1 | 1 to 10 | 1 to 10 | – | – | > 10 | > 10
10 | Cc1cc(CN2C(=O)C(C)(C)c3ccc(C(=O)NCc4c(F)cc(F)cc4F)cc32)ccn1 [Example 54, 3,3-dimethyl-1-((2-methylpyridin-4-yl)methyl)-2-oxo-N-(2,4,6-trifluorobenzyl)indoline-6-carboxamide] | 1 to 10 | 1 to 10 | 1 to 10 | > 10 | > 10 | – | –
11 | Cc1nn(C)c(CN2C(=O)C(C)(C)c3ccc(C(=O)NCc4cc5ccccc5o4)cc32)c1Br [Example 112, N-(benzofuran-2-ylmethyl)-1-((4-bromo-1,3-dimethyl-1H-pyrazol-5-yl)methyl)-3,3-dimethyl-2-oxoindoline-6-carboxamide] | ≤ 1 | ≤ 1 | ≤ 1 | 1 to 10 | 1 to 10 | – | –
12 | CC1(C)C(=O)N(Cc2c(F)cccc2Cl)c2cc(C(=O)NCc3ccc(F)cc3)ccc21 [Example 25, 1-(2-chloro-6-fluorobenzyl)-N-(4-fluorobenzyl)-3,3-dimethyl-2-oxoindoline-6-carboxamide] | ≤ 1 | 1 to 10 | 1 to 10 | > 10 | 1 to 10 | – | –
13 | O=C(NCc1c(F)cc(F)cc1F)c1ccc2c(c1)N(Cc1cc(F)cc(F)c1)C(=O)C21CCCC1 [Example 137, 1′(3,5-difluorobenzyl)-2′-oxo-N-(2,4,6-trifluorobenzyl)spiro[cyclopentane-1,3′-indoline]-6′-carboxamide] | 1 to 10 | 1 to 10 | 1 to 10 | > 10 | > 10 | – | –
14 | CC1(C)C(=O)N(Cc2c(F)cccc2C#N)c2cc(C(=O)NCc3c(F)cc(F)cc3F)ccc21 [Example 76, 1-(2-cyano-6-fluorobenzyl)-3,3-dimethyl-2-oxo-N-(2,4,6-trifluorobenzyl)indoline-6-carboxamide] | 1 to 10 | 1 to 10 | 1 to 10 | > 10 | > 10 | – | –
15 | CC1(C)C(=O)N(Cc2ccccc2C#N)c2cc(C(=O)NCc3c(F)cc(F)cc3F)ccc21 [Example 124, 1-(2-cyanobenzyl)-3,3-dimethyl-2-oxo-N-(2,4,6-trifluorobenzyl)indoline-6-carboxamide] | ≤ 1 | 1 to 10 | 1 to 10 | > 10 | > 10 | – | –
16 | CCn1nc(C)cc1CN1C(=O)C(C)(C)c2ccc(C(=O)NCc3c(F)cc(F)cc3F)cc21 [Example 117, 1-((1-ethyl-3-methyl-1H-pyrazol-5-yl)methyl)-3,3-dimethyl-2-oxo-N-(2,4,6-trifluorobenzyl)indoline-6-carboxamide] | ≤ 1 | 1 to 10 | 1 to 10 | 1 to 10 | 1 to 10 | – | –
17 | Cc1nn(CCO)c(CN2C(=O)C(C)(C)c3ccc(C(=O)NCc4cc5cc(F)ccc5o4)cc32)c1F [Example 119, 1-((4-fluoro-1-(2-hydroxyethyl)-3-methyl-1H-pyrazol-5-yl)methyl)-N-((5-fluorobenzofuran-2-yl)methyl)-3,3-dimethyl-2-oxoindoline-6-carboxamide] | ≤ 1 | 1 to 10 | 1 to 10 | 1 to 10 | 1 to 10 | – | –
18 | CC1(C)C(=O)N(Cc2c(F)cccc2Cl)c2cc(C(=O)NCc3cccc(F)c3)ccc21 [Example 12, 1-(2-chloro-6-fluorobenzyl)-N-(3-fluorobenzyl)-3,3-dimethyl-2-oxoindoline-6-carboxamide] | ≤ 1 | 1 to 10 | 1 to 10 | > 10 | > 10 | – | –
19 | CC1(C)C(=O)N(Cc2cccc(Cl)c2)c2cc(C(=O)NCc3c(F)cc(F)cc3F)ccc21 [Example 19, 1-(3-chlorobenzyl)-3,3-dimethyl-2-oxo-N-(2,4,6-trifluorobenzyl)indoline-6-carboxamide] | ≤ 1 | 1 to 10 | 1 to 10 | > 10 | 1 to 10 | – | –
